Calls of active or inactive are those of the source. No cut-off for these calls is given here.
Legend:
[1] = molecular target: T1, Apoptosis regulator Bcl-2 (Homo sapiens, UniProt P10415); test: Binding affinity to human recombinant Bcl-2 expressed in Escherichia coli by Surface plasmon resonance assay
[2] = molecular target: T1, Apoptosis regulator Bcl-2; test: Induction of Bcl-2 phosphorylation-mediated protein degradation in human MDA-MB-231 cells assessed as decrease in Bcl-2 expression measured after 48 hrs by western blot analysis; assay type: cell-based; settings: dose 0.05-0.4 µM
[3] = molecular target: T1, Apoptosis regulator Bcl-2; test: Induction of Bcl-2 phosphorylation-mediated protein degradation in human BT549 cells assessed as decrease in Bcl-2 expression measured after 48 hrs by western blot analysis; assay type: cell-based; settings: BT-549, dose 0.05-0.4 µM
[4] = molecular target: T1, Apoptosis regulator Bcl-2; test: Induction of Bcl-2 phosphorylation-mediated protein degradation in human MCF7 cells assessed as decrease in Bcl-2 expression measured after 48 hrs by western blot analysis; assay type: cell-based; settings: dose 0.05-0.4 µM
[5] = molecular target: T1, Apoptosis regulator Bcl-2; test: Induction of Bcl-2 phosphorylation-mediated protein degradation in human MDA-MB-231 cells assessed as decrease in Bcl-2 expression at 0.1 uM by western blot analysis; assay type: cell-based; settings: time 12-48 hrs, TDE = time-dependent effect
[6] = molecular target: T1, Apoptosis regulator Bcl-2; test: Induction of Bcl-2 phosphorylation-mediated protein degradation in human BT549 cells assessed as decrease in Bcl-2 expression at 0.1 uM by western blot analysis; assay type: cell-based; settings: BT-549, time 12-48 hrs, TDE = time-dependent effect
[7] = molecular target: T1, Apoptosis regulator Bcl-2; test: Induction of Bcl-2 phosphorylation-mediated protein degradation in human MCF7 cells assessed as decrease in Bcl-2 expression at 0.1 uM by western blot analysis; assay type: cell-based; settings: time 12-48 hrs, TDE = time-dependent effect
[8] = molecular target: T1, Apoptosis regulator Bcl-2; test: Induction of Bcl-2 phosphorylation-mediated protein degradation in human MDA-MB-231 cells assessed as disruption of Bcl2/Beclin1 interaction at 0.2 uM measured after 48 hrs by co-immunoprecipitation analysis; assay type: cell-based
MDA-MB-231 [9] = test: Induction of autophagy in human MDA-MB-231 cells assessed as increase in LC3-II level measured after 48 hrs by Western blot analysis; assay type: functional, cell-based; settings: dose 0.05-0.4 µM
BT-549 [10] = test: Induction of autophagy in human BT-549 cells assessed as increase in LC3-II level measured after 48 hrs by Western blot analysis; assay type: functional, cell-based; settings: dose 0.05-0.4 µM
MCF7 [11] = test: Induction of autophagy in human MCF-7 cells assessed as increase in LC3-II level measured after 48 hrs by Western blot analysis; assay type: functional, cell-based; settings: dose 0.05-0.4 µM
MDA-MB-231 [12] = test: Induction of autophagy in human MDA-MB-231 cells assessed as increase in LC3-II level at 0.1 uM by Western blot analysis; assay type: functional, cell-based; settings: time 12-48 hrs, TDE = time-dependent effect
BT-549 [13] = test: Induction of autophagy in human BT-549 cells assessed as increase in LC3-II level at 0.1 uM by Western blot analysis; assay type: functional, cell-based; settings: time 12-48 hrs, TDE = time-dependent effect
MCF7 [14] = test: Induction of autophagy in human MCF7 cells assessed as increase in LC3-II level at 0.1 uM by Western blot analysis; assay type: functional, cell-based; settings: time 12-48 hrs, TDE = time-dependent effect
BT-549 [15] = test: Induction of autophagy in human BT-549 cells transfected with GFP-LC3 assessed as increase in GFP-LC3 puncta formation after 12 hrs by fluorescence microscopic analysis; assay type: functional, cell-based
MDA-MB-231 [16] = test: Induction of autophagy in human MDA-MB-231 cells assessed increase in LC3-II level at 0.1 to 0.2 uM preincubated with 20 uM autophagosome-lysosome fusion inhibitor, chloroquine for 1 hr followed by incubation with compound for 48 hrs by western blot analysis; assay type: functional, cell-based; settings: dose 0.1-0.2 µM
BT-549 [17] = test: Induction of autophagy in human BT-549 cells assessed increase in LC3-II level at 0.1 to 0.2 uM preincubated with 20 uM autophagosome-lysosome fusion inhibitor, chloroquine for 1 hr followed by incubation with compound for 48 hrs by western blot analysis; assay type: functional, cell-based; settings: dose 0.1-0.2 µM
BT-549 [18] = test: Induction of autophagy in human BT-549 cells expressing mRFP-EGFP-LC3B assessed as accumulation of yellow fluorescence signals measured after 12 hrs by fluorescence microscopic analysis; assay type: functional, cell-based
MDA-MB-231 [19] = test: Cytotoxicity against human MDA-MB-231 cells at 0.1 to 1.6 uM measured after 48 hrs in presence of 20 uM autophagy inhibitor, chloroquine by CCK8 assay; assay type: functional, cell-based; settings: dose 0.1-1.6 µM
BT-549 [20] = test: Cytotoxicity against human BT-549 cells at 0.1 to 1.6 uM measured after 48 hrs in presence of 20 uM autophagy inhibitor, chloroquine by CCK8 assay; assay type: functional, cell-based; settings: dose 0.1-1.6 µM
MCF7 [21] = test: Cytotoxicity against human MCF-7 cells at 0.1 to 1.6 uM measured after 48 hrs in presence of 20 uM autophagy inhibitor, chloroquine by CCK8 assay; assay type: functional, cell-based; settings: dose 0.1-1.6 µM
MDA-MB-231 [22] = test: Cytotoxicity against human MDA-MB-231 cells at 0.1 to 1.6 uM measured after 48 hrs in presence of 2 mM autophagy inhibitor, 3-methyladenine by CCK8 assay; assay type: functional, cell-based; settings: dose 0.1-1.6 µM
BT-549 [23] = test: Cytotoxicity against human BT-549 cells at 0.1 to 1.6 uM measured after 48 hrs in presence of 2 mM autophagy inhibitor, 3-methyladenine by CCK8 assay; assay type: functional, cell-based; settings: dose 0.1-1.6 µM
MDA-MB-231 [24] = test: Induction of autophagy in human MDA-MB-231 cells transfected with Beclin1 siRNA assessed as LC3-II level at 0.1 uM by western blot analysis; assay type: functional, cell-based
MDA-MB-231 [25] = test: Cytotoxicity against human MDA-MB-231 cells transfected with Beclin1 siRNA at 0.1 to 1.6 uM measured after 48 hrs by CCK8 assay; assay type: functional, cell-based; settings: dose 0.1-1.6 µM
MDA-MB-231 [26] = test: Cytotoxicity against human MDA-MB-231 cells transfected with non-targeting siRNA at 0.1 to 1.6 uM measured after 48 hrs by CCK8 assay; assay type: functional, cell-based; settings: dose 0.1-1.6 µM
MDA-MB-231 [27] = test: Induction of apoptosis in human MDA-MB-231 cells assessed as increase in cleaved caspase 3 level pretreated with 20 uM autophagy inhibitor, CQ for 1 hr followed by incubation with drug for 48 hrs by western blot analysis; assay type: functional, cell-based
BT-549 [28] = test: Induction of apoptosis in human BT-549 cells assessed as increase in cleaved caspase 3 level pretreated with 20 uM autophagy inhibitor, CQ for 1 hr followed by incubation with drug for 48 hrs by western blot analysis; assay type: functional, cell-based
BT-549 [29] = test: Induction of apoptosis in human BT-549 cells transfected with Beclin1 siRNA assessed as increase in cleaved caspase-3 level measured after 48 hrs by western blot analysis; assay type: functional, cell-based
MDA-MB-231 [30] = test: Induction of apoptosis in human MDA-MB-231 cells assessed as increase in cleaved PARP level pretreated with 20 uM autophagy inhibitor, CQ for 1 hr followed by incubation with drug for 48 hrs by western blot analysis; assay type: functional, cell-based
BT-549 [31] = test: Induction of apoptosis in human BT-549 cells assessed as increase in cleaved PARP level pretreated with 20 uM autophagy inhibitor, CQ for 1 hr followed by incubation with drug for 48 hrs by western blot analysis; assay type: functional, cell-based

T1 sequence (P10415 whole entry): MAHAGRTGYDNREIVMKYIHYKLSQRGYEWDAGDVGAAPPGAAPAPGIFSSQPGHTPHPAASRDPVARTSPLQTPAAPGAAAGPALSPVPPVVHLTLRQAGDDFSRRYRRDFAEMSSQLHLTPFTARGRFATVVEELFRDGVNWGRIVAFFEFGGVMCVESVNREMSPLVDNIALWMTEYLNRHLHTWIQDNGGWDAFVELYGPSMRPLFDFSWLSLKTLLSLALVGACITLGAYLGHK

C/C(=C\c1csc(C)n1)[C@@H]1C[C@@H]2O[C@]2(C)CCC[C@H](C)[C@H](O)[C@@H](C)C(=O)C(C)(C)[C@@H](O)CC(=O)N1 [IXABEPILONE]
Kd [1]: 337 nM
Activity [2]: Dose-dependent effect
Activity [3]: Dose-dependent effect
Activity [4]: Dose-dependent effect
Activity [5]: Tde
Activity [6]: Tde
Activity [7]: Tde
Activity [8]: Active
Activity (MDA-MB-231 [9]): Dose-dependent effect
Activity (BT-549 [10]): Dose-dependent effect
Activity (MCF7 [11]): Dose-dependent effect
Activity (MDA-MB-231 [12]): Tde
Activity (BT-549 [13]): Tde
Activity (MCF7 [14]): Tde
Activity (BT-549 [15]): Active
Activity (MDA-MB-231 [16]): Active
Activity (BT-549 [17]): Active
Activity (BT-549 [18]): Active
Activity (MDA-MB-231 [19]): Active
Activity (BT-549 [20]): Active
Activity (MCF7 [21]): Active
Activity (MDA-MB-231 [22]): Active
Activity (BT-549 [23]): Active
Activity (MDA-MB-231 [24]): inactive
Activity (MDA-MB-231 [25]): Active
Activity (MDA-MB-231 [26]): Active
Activity (MDA-MB-231 [27]): Active
Activity (BT-549 [28]): Active
Activity (BT-549 [29]): Active
Activity (MDA-MB-231 [30]): Active
Activity (BT-549 [31]): Active

Source: ChEMBL document CHEMBL4765332, “A multi-scale systems pharmacology approach uncovers the anti-cancer molecular mechanism of Ixabepilone” (Eur J Med Chem, 2020)
